Laboratory results: PMC5111430 (ACS chemical biology, 2016)
Each block holds one molecule with its values, some of them ahead of it.

How the values were obtained:
[1] = biological target: 4R0N human recombinant tau (Homo sapiens, UniProt P10636, P618L); test: In vitro tau aggregation, thioflavin T fluorescence assay; type: biochemical; settings: for effect on tau aggregation levels in vitro: ThT fluorescence, heparin-induced, 24 h
[2] = biological target: recombinant human P301L tau (Homo sapiens, UniProt P10636, P618L); test: Hydrogen peroxide production assay; type: biochemical; settings: recombinant tau (10 µM) with 30 µM compound vs vehicle
Sequence of recombinant human P301L tau (P10636 1-383 isoform P10636-6 P243L): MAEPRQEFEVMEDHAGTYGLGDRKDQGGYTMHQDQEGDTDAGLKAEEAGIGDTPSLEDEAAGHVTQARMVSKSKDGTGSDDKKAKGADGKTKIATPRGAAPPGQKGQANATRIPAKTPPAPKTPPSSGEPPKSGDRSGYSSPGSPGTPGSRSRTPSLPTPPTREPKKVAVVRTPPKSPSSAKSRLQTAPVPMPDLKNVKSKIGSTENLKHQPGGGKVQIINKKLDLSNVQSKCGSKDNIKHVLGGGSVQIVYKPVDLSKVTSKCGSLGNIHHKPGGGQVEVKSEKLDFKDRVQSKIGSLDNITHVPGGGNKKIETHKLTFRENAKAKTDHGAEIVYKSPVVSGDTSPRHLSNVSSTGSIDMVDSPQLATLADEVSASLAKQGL

human recombinant tau = human recombinant tau (Homo sapiens, UniProt P10636, P618L); test: Nondenaturing gel electrophoresis of ThT samples, high molecular weight tau; type: biochemical; settings: ThT samples incubated with 30 µM compound
Sequence of human recombinant tau (P10636 1-383 isoform P10636-6 P243L): as above

HEK293T cells = test: LDH cytotoxicity assay; type: cell-based, human; settings: increasing concentrations, 24 h, relative to DMSO
WT4R0N tau = type: cell-based, human; settings: HEK293T, transient WT4R0N tau, 24 h; for effect on tau levels (Hsp70 inhibitor scaffolds): increasing concentrations up to 30 µM; for effect on tau levels (tau aggregation inhibitor scaffolds): increasing concentrations
[3] = biological target: Recombinant human Hsp70 and DnaJA2 (Homo sapiens, UniProt P0DMV8); test: Hsp70 ATPase malachite green assay; type: biochemical; settings: 1 µM Hsp70, 1 µM DnaJA2, 1 mM ATP, 30 min preincubation, 3 h
Sequence of Recombinant human Hsp70 and DnaJA2 (P0DMV8 whole entry): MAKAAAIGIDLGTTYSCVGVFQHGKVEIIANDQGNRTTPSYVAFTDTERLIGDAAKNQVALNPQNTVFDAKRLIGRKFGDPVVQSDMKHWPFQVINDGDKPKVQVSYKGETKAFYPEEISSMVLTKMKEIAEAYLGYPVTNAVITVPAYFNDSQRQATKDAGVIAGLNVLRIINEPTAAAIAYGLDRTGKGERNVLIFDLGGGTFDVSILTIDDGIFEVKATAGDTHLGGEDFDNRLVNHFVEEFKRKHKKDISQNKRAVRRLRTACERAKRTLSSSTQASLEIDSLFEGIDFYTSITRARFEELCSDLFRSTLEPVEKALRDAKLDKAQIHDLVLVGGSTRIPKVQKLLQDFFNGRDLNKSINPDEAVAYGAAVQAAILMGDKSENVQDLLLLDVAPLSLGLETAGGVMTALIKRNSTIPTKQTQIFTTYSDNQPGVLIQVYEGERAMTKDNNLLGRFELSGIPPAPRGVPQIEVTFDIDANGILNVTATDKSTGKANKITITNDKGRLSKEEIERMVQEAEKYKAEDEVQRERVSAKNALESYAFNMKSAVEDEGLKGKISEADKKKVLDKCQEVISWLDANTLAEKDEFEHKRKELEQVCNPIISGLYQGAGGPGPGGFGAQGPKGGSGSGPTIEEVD

Sequence of 4R0N human recombinant tau (P10636 1-383 isoform P10636-6 P243L): as the sequence (P10636 1-383 isoform P10636-6 P243L) above

IC50 [1]: 0.813 µM
production of hydrogen peroxide [2]: no significant differences
Molecule: CCn1c(=O)/c(=C2\Sc3cc(Cl)ccc3N2C)s/c1=C\c1scc[n+]1Cc1ccccc1.[Cl-] [rhodacyanine, 3-benzyl-2-((Z)-((E)-5-(6-chloro-3-methylbenzo[d]thiazol-2(3H)-ylidene)-3-ethyl-4-oxothiazolidin-2-ylidene)methyl)thiazol-3-ium chloride]
effect on high molecular weight tau (human recombinant tau): most potently reduced high molecular weight tau

Molecule: 2-Phenylethynesulfonamide
LDH cytotoxicity (HEK293T cells): high toxicity relative to the other compounds

effect on tau aggregation levels in vitro [1]: increased tau aggregation levels
Molecule: CCCn1c(NC(=O)[C@H]2CCCN(c3cnccn3)C2)nc2ccccc21 [piperidine-3-carboxamide, (S)-N-(1-propyl-1H-benzimidazol-2-yl)-1-(2-pyrazinyl)piperidine-3-carboxamide]
effect on tau levels (Hsp70 inhibitor scaffolds) (WT4R0N tau): increased tau levels

Molecule: 2-((Z)-5-((5-(3- chlorophenyl)furan -2-yl)methylene)-4-oxo-2- thioxothiazolidin-3- yl)ethanoic acid [rhodanine]
Hsp70 ATPase activity [3]: inhibited Hsp70 ATPase activity

IC50 [1]: 22.7 µM
Molecule: CC1=C(C(=O)OCc2ccccc2)C(c2ccc(-c3ccccc3)cc2)NC(=O)N1CCCCCC(=O)O (centres unmarked) [dihydropyrimidine, 4-[1,1'-Biphenyl]-4-yl-3,4-dihydro-6-methyl-2-oxo-5-[(phenylmethoxy)carbonyl]-1(2H)-pyrimidinehexanoic acid]

Molecule: CN(C)c1ccc2nc3ccc(N(C)C)cc3[s+]c2c1.[Cl-] [phenothiazine, 3,7-bis(Dimethylamino)phenazat hionium chloride]
effect on high molecular weight tau (human recombinant tau): most potently reduced high molecular weight tau

Molecule: Nc1scc2c(C(=O)NC3CC3)nn(-c3ccc(Cl)cc3)c(=O)c12 [ATPZ, 5-amino-3-(4-chlorophenyl)-N-cyclopropyl-4-oxo-3,4-dihydrothieno[3,4-d]pyridazine-1-carboxamide]
effect on tau levels (tau aggregation inhibitor scaffolds) (WT4R0N tau): did not lead to tau lowering

effect on tau aggregation levels in vitro [1]: increased tau aggregation levels
Molecule: N#Cc1ccc(COC[C@H]2O[C@@H](n3c(NCc4ccc(Cl)c(Cl)c4)nc4c(N)ncnc43)[C@H](O)[C@@H]2O)cc1 [adenosine analog, 5'-O-[(4-Cyanophenyl)methyl]-8-[[(3,4-dichlorophenyl)methyl]amino]-adenosine]
effect on tau levels (Hsp70 inhibitor scaffolds) (WT4R0N tau): increased tau levels

Molecule: O=C1c2ccc(O)c(O)c2C(=O)c2c(O)ccc(O)c21 [anthraquinone, 1,2,5,8-Tetrahydroxy-9,10-anthraquinone, 1,2,5,8-Tetrahydroxyanthraquinone]
effect on tau levels at 30 µM (WT4R0N tau; 30 µM): effectively lowered tau levels
effect on tau levels (tau aggregation inhibitor scaffolds) (WT4R0N tau): lowered tau levels
